Source: US20070010463A1, “Remedies for diseases caused by strengthened vascular smooth muscle using 14-membered ring macrolid compounds” (priority 2003, published 2007)
Like-named read-outs stand apart in the source and are kept apart here.

How the values were obtained:
[1] = tested on: human coronary vascular smooth muscle cells (CASMCs); assay: Inhibition experiment of the proliferation of CASMCs (WST-1 formazan assay, absorbance 450 nm); format: cell-based
Experimental: The CASMCs were purchased from Clonetics Co., and cultured at 37° C., 5% CO2 using an attached culture kit (SmGM-2) in a culture medium comprising 5% fetal bovine serum (FBS), 2 ng/ml human basic fibroblast growth factor (b-FGF), 5 μg/ml bovine insulin, and 0.5 ng/ml human epidermal growth factor.
The CASMCs were cultured in a 96-well plate as in the Example 1 so that about 70˜80% of the area of each well was occupied by the cells, then put into a nutrition-depletion state for 24 hours under a non-serum condition. Roxythromycin (RXM) was then added as a test compound to the culture medium to give various concentration (0.1, 1.0, 10, 100 μg/ml) and the cells were cultured further for 24˜72 hours. The degree of growth of the cells was assayed at each elapsed time by formazan-formation coloring test with WST-1 agent using Takara Premix WST-1 Cell Proliferation Assay System Kit. Actually, Premix WST-1 was added 10 μl each followed by detection of absorbance at 450 nm by means of a plate reader.
The same experiments were conducted using other anti-bacterial and anti-fungal agents.

[2] = tested on: CDKIs-p21; assay: Western blot analysis of CDKIs-p21 expression in mitogen-stimulated CASMCs; format: cell-based, human; conditions: RXM 1-10 μg/ml, under stimulation with the mitogens, FIG. 5
Experimental: (§1) Western blot was carried out as follows. After the completion of SDS gel electrophoresis, the resulting bands were transferred to PVDF membrane, blocked with dry milk, incubated successively with a first antibody (anit-phosphorylated Rb rabbit antibody) and a labeled second antibody (anti-rabbit IgG mouse antibody), developed using alkaline phosphatase immuno blot kit and determined by means of a densitometer. The operating conditions in these steps were standard ones known to those skilled in the art.
(§2) In order to examine what kind of modification of intracellular molecules was responsible for the RXM's inhibition of the production of phosphorylated Rb in CASMCs, the analysis was carried out by means of Western blot in the same conditions as in Example 5, focusing attention on […] (CDKIs) that was known to control the intracellular molecules, especially on its major molecules, CDKIs-p27 and CDKIs-p21.
(§3) As an expresssion level of both CDKIs-p27 and CDKIs-p21 was so low in a normal cell that it could not be detected by Western blot, the analysis was actually done on the cells activated after stimulation with the mitogens in the same way as in Example 5.

[3] = tested on: human coronary vascular smooth muscle cells (CASMCs); assay: Cell cycle analysis of CASMCs by flow cytometry (propidium iodide); format: cell-based; conditions: RXM 10 μg/ml, FIG. 3
Experimental: A further experiment was done using a flow cytometry in order to study when the RXM's direct inhibition activity of the proliferation of CASMCs was effected in a cell cycle.
The flow cytometry method was carried out in accordance with the following procedures and conditions.
The cells were fixed with 70% ethanol for 30 min and incubated with RNase (5 μg/ml) for 30 min. They were then incubated with propidium iodide (10 μg/ml) for 30 min, followed by detection with FACScan (Becton Dickinson Co.).
The transition ratio of the cell cycle was obtained by DNA histogram analysis with ModFit LT software, and shown as % for the total cells.

[4] = tested on: CDKIs-p27; assay: Western blot analysis of CDKIs-p27 expression in mitogen-stimulated CASMCs; format: cell-based, human; conditions: RXM 1-10 μg/ml, under stimulation with the mitogens, FIG. 5
Experimental: as §1, §2, §3

[5] = tested on: phosphorylated Rb (retinoblastoma gene products); assay: Western blot analysis of phosphorylated Rb in mitogen-stimulated CASMCs; format: cell-based, human; conditions: RXM 1-10 μg/ml, FIG. 4
Experimental: It was analyzed whether or not the RXM's inhibition of the stage from G1 phase to S phase of CASMCs was based on the inhibition of phophorylation of Rb (retinoblastoma gene products) that was supposed to be an essential intracellular molecule for transition in the cell cycle. The analysis was carried out using phosphorylated Rb as a marker by means of Western blot with a monoclonal antibody specifically recognizing phosphorylated Rb (Cell Signaling Technology Co.).
As a level of phosphorylated Rb was so low in normal conditions that it could not be detected by Western blot under normal conditions, the analysis was actually done after 5% FBS, 2 ng/ml human b-FGF, 5 μg/ml bovine insulin, and 0.5 ng/ml human epidermal growth factor had been added to the culture medium in order to stimulate CASMCs with mitogens up to an activated state and to increase an amount of the expressed phosphorylated Rb.
as §1, with “The operating conditions in these steps were standard ones known to those skilled in the art.” left out

[6] = background statement; cited from earlier work
[7] = tested on: mouse; conditions: cited from earlier work
[8] = 50 μg/ml, any time between 24 and 72 hours, FIG. 2

With C[C@@H]1[C@H](O)[C@@H](C)/C=C/C=C/C=C/C=C/C=C/C=C/C=C/[C@H](O[C@@H]2O[C@H](C)[C@@H](O)[C@H](N)[C@@H]2O)C[C@@H]2O[C@](O)(C[C@@H](O)C[C@@H](O)[C@H](O)CC[C@@H](O)C[C@@H](O)CC(=O)O[C@H]1C)C[C@H](O)[C@H]2C(=O)O [Amphotericin B] the “inhibition of the proliferation of CASMCs” value (shortened to “inhibition … of CASMCs”) ([1]; 50 ng/ml, any time between 24 and 72 hours, FIG. 2) was “none”.
With CC1(C)S[C@@H]2[C@H](NC(=O)[C@H](N)c3ccccc3)C(=O)N2[C@H]1C(=O)O [Ampicilin] the “inhibition … of CASMCs” value [1, 8] was “none”.
In the case of CC[C@H]1OC(=O)[C@H](C)[C@@H](O[C@H]2C[C@@](C)(OC)[C@@H](O)[C@H](C)O2)[C@H](C)[C@@H](O[C@@H]2O[C@H](C)C[C@H](N(C)C)[C@H]2O)[C@](C)(O)C[C@@H](C)/C(=N\OCOCCOC)[C@H](C)[C@@H](O)[C@]1(C)O [RXM, roxithromycin], the “expression of CDKIs-p21” value [2] is reported as “no clear difference was observed”, the “inhibition of the stage from G1 phase to S phase in a cell cycle” value [3] is reported as “inhibited a stage from G1 phase to S phase in a cell cycle to a statistically significant level” and the “inhibition of the stage from S phase to G2/M phase” value [3] is reported as “did not inhibit”. The “expression of CDKIs-p27 in CASMCs” value [4] was “clearly increased in a RXM concentration-dependency manner”, the “production of phosphorylated Rb in CASMCs” value [5] was “clearly inhibited” and the “inhibition … of CASMCs” value ([1]; RXM 1 μg/ml, any time during the observation (24-72 hours), vs RXM non-added group, FIG. 1A) was “inhibited the proliferation of CASMCs to a statistically significant level”. The “inhibition … of CASMCs” value ([1]; RXM 10 μg/ml, any time during the observation (24-72 hours), vs RXM non-added group, FIG. 1A) was “inhibited the proliferation of CASMCs to a statistically significant level” and the “inhibition … of CASMCs” value ([1]; range of 1-100 μg/ml, drug-dependence manner, vs RXM non-added group, FIG. 1B) was “inhibited the proliferation of CASMCs to a statistically significant level in a drug-dependence manner”.
In the case of CO[C@H]1C[C@@H]2CC[C@@H](C)[C@@](O)(O2)C(=O)C(=O)N2CCCC[C@H]2C(=O)O[C@H]([C@H](C)C[C@@H]2CC[C@@H](O)[C@H](OC)C2)CC(=O)[C@H](C)/C=C(\C)[C@@H](O)[C@@H](OC)C(=O)[C@H](C)C[C@H](C)/C=C/C=C/C=C/1C [Rapamycin, rapamycin], the cytotoxicity [6] is listed as “strong cytotoxicity”.
For CC[C@H]1OC(=O)[C@H](C)[C@@H](O[C@H]2C[C@@](C)(OC)[C@@H](O)[C@H](C)O2)[C@H](C)[C@@H](O[C@@H]2O[C@H](C)C[C@H](N(C)C)[C@H]2O)[C@](C)(O)C[C@@H](C)C(=O)[C@H](C)[C@@H](O)[C@]1(C)O.Cl [erythromaycin hydrochloride, erythromaycin], the “Acute toxicity (mouse LD50)” value ([7]; interperitoreal) is given as 490 ± 30.4 mg/kg and the “Acute toxicity (mouse LD50)” value ([7]; vein) is given as 425.6 ± 15.7 mg/kg.
For Gentamicin, the “inhibition … of CASMCs” value [1, 8] was “none”.
